Common to all, as to format: in vivo
Test [1] deals with Setaria faberi (SETFA). As to the kind of experiment: Pre-emergence Test, Setaria faberi (SETFA). The note with it: 1000 g/ha, evaluated after 13 days.
Test [2] concerns Echinochloa crus-galli (ECHCG). As to the kind of experiment: Pre-emergence Test, Echinochloa crus-galli (ECHCG). The note with it: 1000 g/ha, evaluated after 13 days.
Test [3] concerns Zea mays (ZEAMX). As to the kind of experiment: Pre-emergence Test, Zea mays (ZEAMX). The note with it: 1000 g/ha, evaluated after 13 days.
Test [4] deals with Ipomoea hederacea (IPOHE). As to the kind of experiment: Pre-emergence Test, Ipomoea hederacea (IPOHE). The note with it: 1000 g/ha, evaluated after 13 days.
For test [5], the system named is Amaranthus palmeri (AMAPA). As to the kind of experiment: Pre-emergence Test, Amaranthus palmeri (AMAPA). The note with it: 1000 g/ha, evaluated after 13 days.
The subject of test [6] is Amaranthus retoflexus (AMARE). As to the kind of experiment: Pre-emergence Test, Amaranthus retoflexus (AMARE). The note with it: 1000 g/ha, evaluated after 13 days.
Test [7] relates to Setaria faberi (SETFA). As to the kind of experiment: Post-emergence Test, Setaria faberi (SETFA). Also on record: key to percentage damage caused to the plant, SETFA (five-point scale): 5=81-100%, 4=61-80%, 3=41-60%, 2=21-40%, 1=0-20% damage. The note with it: evaluated after 13 days. In short, it runs like this:
(§1)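 Application was a spray of acetone/water (50:50) with 0.5% Tween 20 onto pots of test species sown in standard soil. Unless otherwise stated, the rate was 1000 g/ha. After 13 days under glasshouse conditions (24/16 °C, 65% humidity), injury was scored from 1 (0-20%) to 5 (81-100%).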

The test system of test [8] is Echinochloa crus-galli (ECHCG). As to the kind of experiment: Post-emergence Test, Echinochloa crus-galli (ECHCG). Also on record: key to percentage damage caused to the plant, ECHCG (five-point scale): 5=81-100%, 4=61-80%, 3=41-60%, 2=21-40%, 1=0-20% damage. The note with it: evaluated after 13 days. In short, it runs like this: as §1
For test [9], the system named is Zea mays (ZEAMX). As to the kind of experiment: Post-emergence Test, Zea mays (ZEAMX). The note with it: evaluated after 13 days. Details: key to percentage damage caused to the plant, ZEAMX (five-point scale): 5=81-100%, 4=61-80%, 3=41-60%, 2=21-40%, 1=0-20% damage. In short, it runs like this:
as §1

For test [10], the system named is Ipomoea hederacea (IPOHE). As to the kind of experiment: Post-emergence Test, Ipomoea hederacea (IPOHE). Also on record: key to percentage damage caused to the plant, IPOHE (five-point scale): 5=81-100%, 4=61-80%, 3=41-60%, 2=21-40%, 1=0-20% damage. The note with it: evaluated after 13 days. In short, it runs like this: as §1
The test system of test [11] is Amaranthus palmeri (AMAPA). As to the kind of experiment: Post-emergence Test, Amaranthus palmeri (AMAPA). Details: key: 5=81-100%, 4=61-80%, 3=41-60%, 2=21-40%, 1=0-20% damage. The note with it: evaluated after 13 days. In short, it runs like this:
as §1

Test [12] concerns Amaranthus retoflexus (AMARE). As to the kind of experiment: Post-emergence Test, Amaranthus retoflexus (AMARE). The note with it: evaluated after 13 days. Also on record: key to percentage damage caused to the plant, AMARE (five-point scale): 5=81-100%, 4=61-80%, 3=41-60%, 2=21-40%, 1=0-20% damage. In short, it runs like this: as §1

As to `CCOC(=O)c1c(-c2cccc(Cl)c2)n(CC)c(Cn2ccc(C(F)(F)F)n2)cc1=O` [Compound 26, ethyl 2-(3-chlorophenyl)-1-ethyl-4-oxo-6-[[3-(trifluoromethyl)pyrazol-1-yl]methyl]pyridine-3-carboxylate], the “Pre-emergence Test SETFA, percentage damage caused to the plant (five-point scale)” value in the test with Setaria faberi (SETFA) [1] is recorded as 3 (3=41-60%). Also, the “Pre-emergence Test ECHCG, percentage damage caused to the plant (five-point scale)” value in test [2] was 2 (2=21-40%). Besides, the “Pre-emergence Test ZEAMX, percentage damage caused to the plant (five-point scale)” value with Zea mays (ZEAMX) [3] is listed as 1 (1=0-20%). For the same compound, the “Pre-emergence Test IPOHE, percentage damage caused to the plant (five-point scale)” value in [4] was 0. The “Pre-emergence Test AMAPA, percentage damage caused to the plant (five-point scale)” value in test [5] came to 0. In test [6], the “Pre-emergence Test AMARE, percentage damage caused to the plant (five-point scale)” value is listed as 0. The “percentage damage caused to the plant, SETFA (five-point scale)” value in the test on Setaria faberi (SETFA) [7] (250 g/Ha) and in the test with Setaria faberi (SETFA) [7] (1000 g/ha) was 1 (1=0-20%) each time. In addition, the “percentage damage caused to the plant, ECHCG (five-point scale)” value in [8] (250 g/Ha) and in [8] (1000 g/ha) was 1 (1=0-20%) in each case. In addition, the “percentage damage caused to the plant, ZEAMX (five-point scale)” value is 1 (1=0-20%) in the test on Zea mays (ZEAMX) [9] (250 g/Ha) and 2 (2=21-40%) with Zea mays (ZEAMX) [9] (1000 g/ha). Also, the “percentage damage caused to the plant, IPOHE (five-point scale)” value in test [10] (250 g/Ha) is 1 (1=0-20%); in test [10] (1000 g/ha), 3 (3=41-60%). Moreover, the results for the “percentage damage caused to the plant, AMAPA (five-point scale)” value in test [11] (250 g/Ha) and in test [11] (1000 g/ha) were 1 (1=0-20%) and 2 (2=21-40%), respectively. Also, the “percentage damage caused to the plant, AMARE (five-point scale)” value in [12] (250 g/Ha) and in [12] (1000 g/ha) was 1 (1=0-20%) in each case.

The values above are taken from US20250098679A1, “HERBICIDAL PYRIDONE DERIVATIVES” (SYNGENTA CROP PROTECTION AG, priority 2021, published 2025).
